Entries after “also recorded” stand apart in the source; their conditions may differ. Read-outs that look alike come from different tables or passages of the source.
Key:
[1] = tested on: B16-F10 cells; format: cell-based
[2] = tested on: GFP in B16 GFP cells; format: cell-based; conditions: for Able to transfect?: GFP knockdown at 50 nM; for outcome of screening for GFP siRNA delivery: peptide:polynucleotide ratio between 50:1 and 200:1
[3] = tested on: GFP in B16 GFP cells; format: cell-based
[4] = tested on: RAW264.7 cells
[5] = tested on: B16 GFP cells; experiment: Alamar Blue cell viability of transfected B16 GFP cells; format: cell-based
Method: Cell viability was determined 72 hours post transfection using Alamar Blue (Life technologies). Briefly, Alamar Blue was diluted 1:10 into phenol red free medium and incubated with cells for 2-4 hours. Fluorescence was measured on a fluorescent plate reader with excitation at 570 nm and emission at 585 nm (Varian Cary Eclipse, Agilent Technologies, Santa Clara, Calif.).
B16 GFP cells were transfected with increasing concentrations of p5RHH/siRNA nanoparticles containing GFP-specific or scrambled siRNA. For comparison, B16 GFP cells were also transfected with increasing concentrations of GFP specific or scrambled siRNA using lipofectamine 2000. RNA extracted from transfected cells was analyzed using Northern blot analysis, and normalized viability of transfected B16 cells was determined (FIG. 28).

[6] = tested on: B16-F10 cells
[7] = tested on: Rabbit red blood cells (RBC); experiment: RBC hemolysis; format: cell-based
Method: The lytic capacity of liberated p5RHH can be quantified in vitro with red blood cell (RBC) hemolysis assays. When incubated at decreasing pH, the ability of p5RHH/siRNA nanoparticles to lyse RBC is enhanced, due to the release of free p5RHH at pH ≤5.5 (FIG. 210). These assays were performed at 4° C. to decrease the rate of auto-hemolysis observed at higher temperatures.
Rabbit red blood cells (RBC) were isolated from whole blood by centrifugation and washed in PBS 3× before storage at 4° C. Prior to hemolysis studies, RBC were washed 3× in pH appropriate HBSS and diluted 1 to 5000. RBCs in pH-specific buffer were then incubated with p5RHH/siRNA nanoparticles for 12 hours. The RBC remnants were pelleted by centrifugation and the hemoglobin content of the supernatant was measured by UV absorbance at 550 nm. Absorbance values were then normalized against maximum lysis by p5RHH only controls and presented as the average of 3 separate experiments.

[8] = tested on: HUVEC cells
[9] = all tested doses, Hou et al., 2013; cited from earlier work
[10] = tested on: B16F10 cells; experiment: Acridine orange staining for endosomal/lysosomal disruption; format: cell-based; conditions: 100 nM siRNA, 12 hours
Method: Endosomal disruption in living cells was observed by acridine orange staining. Cells were first loaded with acridine orange (10 μM, 15 minutes), which fluoresces red at low pH in the endosome but green at cytoplasmic pH. Endosomal disruption can be visualized by an increase in cytoplasmic green fluorescence in the presence of 100 μM chloroquine (FIG. 21F).
B16F10 cells plated on coverslips are loaded with acridine orange at 10 μM for 15 minutes and washed for 3× in PBS before incubation in the presence of p5RHH/siRNA nanoparticles in 10% DMEM at a final siRNA concentration of 100 nM for 12 hours. Alternatively, cells were exposed to chloroquine (Sigma) at 100 μM for 15 minutes prior to imaging. Live cells were visualized by fluorescence microscopy on an Olympus BX610 (Tokyo, Japan).

[11] = tested on: B16F10 cells; experiment: Confocal microscopy of cytoplasmic oligonucleotide release in B16 cells; format: cell-based
[12] = charge ratio (+/−) 6:1 (peptide/siRNA 62:1, 28:1 or 50:1 by peptide)
[13] = charge ratio (+/−) 12:1 (peptide/siRNA 124:1, 56:1 or 100:1 by peptide)
[14] = charge ratio (+/−) 24:1 (peptide/siRNA 248:1, 112:1 or 200:1 by peptide)

CCN(c1nc(N)c(C(=O)NC(=N)N)nc1Cl)C(C)C [EIPA]
effect of endocytosis inhibitor on p5RHH/siRNA nanoparticle uptake [1]: dramatically reduces p5RHH/siRNA uptake; also recorded: nearly abolishes nanoparticle uptake

CC[C@H](C)[C@H](NC(=O)CN)C(=O)NCC(=O)N[C@@H](C)C(=O)N[C@H](C(=O)N[C@@H](CC(C)C)C(=O)N[C@@H](CCCCN)C(=O)N[C@H](C(=O)N[C@@H](CC(C)C)C(=O)N[C@H](C(=O)N[C@H](C(=O)NCC(=O)N[C@@H](CC(C)C)C(=O)N1CCC[C@H]1C(=O)N[C@@H](C)C(=O)N[C@@H](CC(C)C)C(=O)N[C@H](C(=O)N[C@@H](CO)C(=O)N[C@@H](Cc1c[nH]c2ccccc12)C(=O)N[C@H](C(=O)N[C@@H](CCCCN)C(=O)N[C@@H](CCCNC(=N)N)C(=O)N[C@@H](CCCCN)C(=O)N[C@@H](CCCNC(=N)N)C(=O)N[C@@H](CCC(N)=O)C(=O)N[C@@H](CCC(N)=O)C(N)=O)[C@@H](C)CC)[C@@H](C)CC)[C@@H](C)O)[C@@H](C)O)C(C)C)C(C)C [Melittin, reference compound]
Able to transfect? [2, 12]: No
Able to transfect? [2, 13]: Toxic
Able to transfect? [2, 14]: Toxic
outcome of screening for GFP siRNA delivery [2]: too toxic

CO/C1=C\C(C)=C\[C@@H](C)[C@@H](O)[C@@H](C)C/C(C)=C/C=C/[C@H](OC)[C@@H]([C@@H](C)[C@@H](O)[C@H](C)[C@@]2(O)C[C@@H](O)[C@H](C)[C@@H](C(C)C)O2)OC1=O [bafilomycin A1, reference compound]
effect of bafilomycin A1 on p5RHH/siRNA uptake [1]: did not impair p5RHH/siRNA uptake; also recorded: does not inhibit uptake
effect of bafilomycin A1 on p5RHH mediated GFP knockdown [2]: near complete loss of GFP knockdown; also recorded: blocks knockdown of GFP

CCN(CC)CCCC(C)Nc1ccnc2cc(Cl)ccc12 (centres unmarked) [chloroquine, reference compound]
effect of chloroquine on p5RHH mediated GFP knockdown [3]: does not improve knockdown

CCCCC[C@@H](O)[C@H]1C(=O)O[C@H](C)[C@@H](O)/C=C/C=C/C=C/C=C/C=C(\C)[C@@H](O)C[C@H](O)C[C@H](O)C[C@H](O)C[C@H](O)C[C@H](O)C[C@@H]1O [filipin]
effect of endocytosis inhibitor on p5RHH/siRNA nanoparticle uptake [1]: no effect; also recorded: do not inhibit

CC[C@H](C)[C@H](NC(=O)[C@H](CC(C)C)NC(=O)[C@H](C)NC(=O)[C@@H]1CCCN1C(=O)[C@H](CC(C)C)NC(=O)CNC(=O)[C@@H](NC(=O)[C@@H](NC(=O)[C@H](CC(C)C)NC(=O)[C@@H](N)C(C)C)[C@@H](C)O)[C@@H](C)O)C(=O)N[C@@H](CO)C(=O)N[C@@H](Cc1c[nH]c2ccccc12)C(=O)N[C@H](C(=O)N[C@@H](CCCNC(=N)N)C(=O)N[C@@H](CCCNC(=N)N)C(=O)N[C@@H](CCCNC(=N)N)C(=O)N[C@@H](Cc1c[nH]cn1)C(=O)N[C@@H](CCCNC(=N)N)C(=O)N[C@@H](CCCNC(=N)N)C(=O)N[C@@H](Cc1c[nH]cn1)C(=O)N[C@@H](CS)C(=O)O)[C@@H](C)CC [p5RHH]
cytotoxicity in RAW264.7 cells [4]: without cytotoxicity
decrease in cell viability [4]: ~5%
cytotoxicity at p5RHH:siRNA ratios up to 200:1 ([5]; Alamar blue, 50 nM siRNA): no sign of cytotoxicity
decrease in cell viability ([5]; highest concentrations tested): ~3%
toxicity by Alamar blue ([5]; siRNA concentrations up to 200 nM): minimal toxicity
nonspecific cytotoxicity (B16 viability) [6]: no effect on B16 viability
decreased B16-F10 viability ([6]; mouse): 60%
IC50 ([7]; free peptide, normalized to 0.1% Triton-X, read-out: IC50 of RBC lysis): 200 to 400 µM
pH at which hemolysis / hemoglobin release is increased ([7]; p5RHH/siRNA nanoparticles, 4° C.): ≤ 5.5
cytotoxicity towards HUVEC cells [8]: no cytotoxicity
cytotoxicity [9]: without significant cytotoxicity

VLKVLTTLAPALISWIRRRHRRC [p5RH-LL]
Able to transfect? [2, 12]: No
Able to transfect? [2, 13]: Yes
Able to transfect? [2, 14]: No
outcome of screening for GFP siRNA delivery [2]: able to transfect

VLTTGLPALISWIKRKRQQC [Peptide 5C]
Able to transfect? [2, 12]: No
Able to transfect? [2, 13]: No
Able to transfect? [2, 14]: No

VLTTGLPALISWIKRKRQQRWRRRR [p5RWR]
GFP knockdown by western blotting [3]: unable to induce GFP knockdown even in the presence of chloroquine
endosomal disruption (acridine orange release) [10]: cannot
Able to transfect? [2, 12]: No
Able to transfect? [2, 13]: No
Able to transfect? [2, 14]: No
siRNA transfection ability (GFP knockdown) ([2]; flow cytometry, without / with 50 μM chloroquine): unable to initiate GFP knockdown without the aid of chloroquine; also recorded: no siRNA transfection ability
oligonucleotide release into the cytoplasm [11]: do not reach the cytoplasm; also recorded: does not manifest appreciable oligonucleotide release into the cytoplasm

VLTTGLPALISWIRRRHRRC [p5RH]
Able to transfect? [2, 12]: No
Able to transfect? [2, 13]: Yes
Able to transfect? [2, 14]: No
outcome of screening for GFP siRNA delivery [2]: able to transfect

Source: patent US9987371B2 (priority 2013, dated 2018)
